Holding throughout (assay): NCI anticancer screen, dose series, 48 h
Assay [1] relates to BT-549.
Assay [2] concerns DU-145.
Assay [3] deals with HT-29.
Assay [4] has as its system Hs-578T.
The test system of assay [5] is MCF7.
In assay [6] the test system is MDA-MB-231.
Assay [7] deals with MDA-N.
In assay [8] the test system is Malme-3M.
The subject of assay [9] is NCI/ADR-RES.
Assay [10] relates to OVCAR-5.
Assay [11] concerns PC-3.
Assay [12] deals with RPMI-8226.
The test system of assay [13] is RXF 393.
Assay [14] relates to SF-295.
The test system of assay [15] is SF-539.
Assay [16] deals with SK-MEL-28.
For assay [17], the system named is T47D.
The subject of assay [18] is HOP-92.

Each structure is given as a SMILES string.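 96-well plates; 48 h exposure; 5 concentrations. Endpoints by linear interpolation between flanking doses. Not reached: highest tested concentration assigned. At the GI50, growth is halved.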 Calls of active or inactive are those of the source. Rule as the data show it: active = GI50 up to about 1.1 µM and inactive = higher.

As to `Cc1cc(S(=O)(=O)Nc2nncn2-c2ccc(Cl)cc2)c(S)cc1Cl`, the GI50 in assay [1], in assay [2], in assay [3], in assay [4], in assay [5] and in assay [6] was > 10 µM (inactive) throughout. In addition, the GI50 in assay [7], in assay [8], in assay [9], in assay [10], in [11] and in assay [12] was > 10 µM (inactive) each time. In addition, the GI50 in assay [13], in [14], in assay [15], in [16] and in [17] was > 10 µM (inactive) in each case.

As for `CCCCCCNC(=O)C1=C(C)NC(C)=C(C(=O)NCCCCCC)C1`, the GI50 is > 100 µM (inactive) in [1]; > 100 µM (inactive) in [2]; 73.3 µM (inactive) in [18]; 89.3 µM (inactive) in assay [3]; > 100 µM (inactive) in [4]; > 100 µM (inactive) in assay [5]. Also, the GI50 is > 100 µM (inactive) in [6]; 75.5 µM (inactive) in assay [7]; > 100 µM (inactive) in [9]; > 100 µM (inactive) in assay [10]; > 100 µM (inactive) in assay [11]; > 100 µM (inactive) in assay [12]. Further, the GI50 in assay [13], in [14], in assay [15], in [16] and in assay [17] was > 100 µM (inactive) each time.

In the case of `O=C1CSC(c2ccc(Cl)cc2Cl)N1c1ccc(Oc2ccc(Cl)cc2)c(Cl)c1` (centres undefined), the GI50 is 22.2 µM (inactive) in [1]; 32.1 µM (inactive) in [2]; 21.8 µM (inactive) in [18]; 16.4 µM (inactive) in [3]; 14.7 µM (inactive) in assay [4]; 33.2 µM (inactive) in assay [5]. Also, the GI50 in assay [6] is 19.4 µM (inactive); in assay [7] it was 21.7 µM (inactive); in assay [8], 16.9 µM (inactive); in [9], 21.6 µM (inactive); in [10] it was 33.3 µM (inactive); in assay [11], 27.8 µM (inactive). For the same molecule, the GI50 in [12] was 13.8 µM (inactive); in assay [14] it was 22 µM (inactive); in [15], 21.6 µM (inactive); in [16], 39.4 µM (inactive); in [17] it was 23.4 µM (inactive).

For the molecule `O=C(CC(=O)Nc1ccc(C(=O)O)cc1)Nc1ccc(C(=O)O)cc1`, the GI50 in assay [1], in assay [2], in [18], in [3], in [4] and in [5] was > 100 µM (inactive) each time. For the same molecule, the GI50 in assay [6], in [7], in assay [8], in assay [9], in assay [11] and in assay [12] was > 100 µM (inactive) throughout. The GI50 was > 100 µM (inactive) in [14], > 100 µM (inactive) in [15], > 100 µM (inactive) in [16] and 49.5 µM (inactive) in assay [17].

With `CNNC(=NS(=O)(=O)c1cc(C#N)c(NNC)cc1S)NNC`, the GI50 in assay [1], in [2], in assay [18], in [3], in [4] and in [5] was > 10 µM (inactive) in each case. The GI50 in [7], in [8], in [9], in [10], in [11] and in assay [12] was > 10 µM (inactive) each time. In addition, the GI50 in [13], in assay [14], in [15], in assay [16] and in assay [17] was > 10 µM (inactive) throughout.

Consider `CC(=O)OCCCCn1cnc2c(Cl)nc(Nc3ccccc3)nc21`, for which the GI50 in assay [1], in assay [2], in assay [3], in assay [4], in assay [5] and in assay [6] was > 100 µM (inactive) each time. Also, the GI50 in assay [7], in assay [8], in [9], in assay [10], in assay [11] and in assay [12] was > 100 µM (inactive) throughout. The GI50 in assay [14], in assay [15], in [16] and in assay [17] was > 100 µM (inactive) each time.

On to `CCOC(=O)c1ccc(C(=O)C(C(C)=O)C(=O)OC(C)(C)C)[nH]1` (centres undefined), for which the GI50 in [1], in [2], in [3], in [4], in assay [5] and in assay [6] was > 100 µM (inactive) in each case. Also, the GI50 in assay [7], in assay [8], in [9], in assay [10], in [11] and in assay [12] was > 100 µM (inactive) throughout. The GI50 in assay [13], in [14], in [16] and in assay [17] was > 100 µM (inactive) each time.

As for `O=C1c2sc(-c3ccc(F)cc3)cc2-n2cccc21`, the GI50 in [1] is 34 µM (inactive); in [2], 24.6 µM (inactive); in assay [3] it was 25.2 µM (inactive); in [4], 19.7 µM (inactive); in assay [5], 24.5 µM (inactive); in assay [6], 22.2 µM (inactive). The GI50 was 25.8 µM (inactive) in [7]; 77.3 µM (inactive) in [8]; 31.2 µM (inactive) in assay [9]; > 100 µM (inactive) in assay [10]; 37.2 µM (inactive) in [11]; 23.3 µM (inactive) in [12]. Also, the GI50 was 23.5 µM (inactive) in assay [13], 25.1 µM (inactive) in [14], 69.8 µM (inactive) in [16] and 12.8 µM (inactive) in assay [17].

For the molecule `CN(COC(=O)C(C)(C)C)c1nc(N(C)COC(=O)C(C)(C)C)nc(N(C)COC(=O)C(C)(C)C)n1`, the GI50 in assay [1] was 34.4 µM (inactive); in assay [2], 22.4 µM (inactive); in [3], 34 µM (inactive); in [4], > 100 µM (inactive); in [5], 33.8 µM (inactive); in assay [6] it was 16.4 µM (inactive). The GI50 in assay [7] is 25.7 µM (inactive); in assay [8], 12.7 µM (inactive); in assay [9], 44.3 µM (inactive); in [10], > 100 µM (inactive); in assay [11], 77.8 µM (inactive); in assay [13], 21 µM (inactive). Besides, the GI50 in assay [14] was 94.6 µM (inactive); in assay [15] it was > 100 µM (inactive); in assay [16], > 100 µM (inactive); in [17], 56.6 µM (inactive).

On to `CC(C)(C)c1ccc(-n2c3nc(=O)n(-c4ccccc4CO)c(=O)c-3cc3ccccc32)cc1`, for which the GI50 in [1] was 38.4 µM (inactive); in assay [2], 42.4 µM (inactive); in [18], 36.8 µM (inactive); in [3] it was 26.6 µM (inactive); in assay [4], 64.3 µM (inactive); in [5], 65.6 µM (inactive). Also, the GI50 in [6] was 19.9 µM (inactive); in [7], 22.2 µM (inactive); in assay [8], > 100 µM (inactive); in assay [9], 50 µM (inactive); in [10], > 100 µM (inactive); in assay [11], 39.7 µM (inactive). Besides, the GI50 in assay [13] is 22.8 µM (inactive); in assay [14], 41.1 µM (inactive); in [15], 30.5 µM (inactive); in [16], 38.7 µM (inactive); in assay [17], 50 µM (inactive).

In the case of `COC1CC(=O)C2C(=O)N(c3ccccc3)C(=O)C23C(C(=O)c2ccccc2)=C(C)NC13O` (centres undefined), the GI50 was 23.3 µM (inactive) in [1]; 13.5 µM (inactive) in assay [2]; < 0.01 µM (active) in assay [18]; 16.9 µM (inactive) in [3]; 22.2 µM (inactive) in [4]; 4.06 µM (inactive) in assay [5]. The GI50 is 17.1 µM (inactive) in assay [6]; 18.7 µM (inactive) in [7]; 1.43 µM (inactive) in [8]; 20.9 µM (inactive) in assay [9]; 18.9 µM (inactive) in assay [10]; 10.4 µM (inactive) in assay [11]. For the same molecule, the GI50 in assay [12] is 5.08 µM (inactive); in assay [14], 32.4 µM (inactive); in [15], 5.32 µM (inactive); in [16] it was 11 µM (inactive); in assay [17], 2.92 µM (inactive).

Regarding `Cc1ncc([N+](=O)[O-])n1CC[N+](C)([O-])CCCCn1ccnc1[N+](=O)[O-]` (centres undefined), the GI50 in assay [1], in [2], in [3], in assay [4], in [5] and in assay [6] was > 100 µM (inactive) each time. For the same molecule, the GI50 in assay [7], in assay [8], in [9], in assay [10], in [11] and in assay [12] was > 100 µM (inactive) throughout. Further, the GI50 in assay [13], in assay [14], in assay [15], in [16] and in assay [17] was > 100 µM (inactive) in each case.

The values above are taken from ChEMBL document CHEMBL1201862, “PubChem BioAssay data set” (2004).
